One may read the T/C as the ratio of treated to control. One may read the IC50 as the concentration needed to halve the response being measured.

Molecules are shown by their SMILES.

The test system of assay [1] is human colorectal cancer cell line DLD-1 BRCA2−/− xenograft tumor. Nature of the assay: Subcutaneous xenograft tumor model of human colorectal cancer cell line DLD-1 BRCA2−/−. In kind it is in vivo, BALB/c nude mice. The following applies: DLD-1 BRCA2 deletion. From the text:
• 1. Experimental objective: To evaluate the in vivo efficacy of compound 1 in a subcutaneous xenograft tumor model of human colorectal cancer cell line DLD-1 BRCA2^−/− in nude mice. • 2. Reagent • RPMI-1640 medium (22400-089, Gibco), fetal bovine serum (FBS) (10099-141C, Gibco) • Phosphate buffer (PBS, 10010-023, Gibco), HPMC (D180HB4005, Shanghai Colorcon Coating Technology Ltd.) • 0.25% Trypsin-EDTA (25200-056, Gibco), Pen Strep (P/S) (15140-122, Gibco) • 3. Experimental operations and data processing • 3.1 Animals: BALB/c nude mice, 6-8 weeks old, female, purchased from the Laboratory Animal Business Department of Shanghai Institute of Planned Parenthood Research. • 3.2 Cell culture and cell suspension preparation • a. A vial of DLD-1 BRCA2^−/− cells was taken from a cell bank, the cells were thawed with RPMI-1640 medium (RPMI-1640+10% FBS), and the thawed cells were placed in a cell culture flask (with the cell type, date, the name of the culture operator, etc., being marked on the wall of the flask), which were placed in a CO2 incubator for culturing (wherein the temperature of the incubator was 37° C., and the CO2 concentration was 5%). • b. The cells were passaged every three days, and after passage, the cells were placed in the CO2 incubator to continue the culture. This process was repeated until the cell number met the requirements for in vivo efficacy. • c. The cultured cells were collected, counted using a full-automatic cell counter, and resuspended with PBS on the basis of the counting results to prepare a cell suspension (at a density of 5×10^7/mL), which was then placed in an ice box for later use. • 3.3 Cell inoculation • a. Before inoculation, the nude mice were marked with disposable universal ear tags for mice and rats. • b. At the time of inoculation, the cell suspension was mixed uniformly, 0.1-1 mL of the cell suspension was aspirated using a 1 mL syringe with air bubbles expelled, and the syringe was then placed on an ice bag for later use. • c. The nude mouse was secured with the left hand, the right dorsal area near the right shoulder (inoculation site) of the nude mouse was disinfected with a 75% alcohol cotton ball, and inoculation was initiated after 30 seconds. • d. The experimental nude mice were inoculated sequentially (0.1 mL of cell suspension per mouse). • 3.4 Tumor measurement, grouping and administration in tumor-bearing mice • a. Tumor was measured on days 10-18 after inoculation depending on the tumor growth, and the tumor size was calculated.
tumor volume (mm^3)=length (mm)×width (mm)×width (mm)/2 Tumor volume calculation: • b. According to the body weight of tumor-bearing mice and the size of the tumor, the mice were grouped by random grouping. • c. According to the grouping results, the test drug was started to be administered (administration method: oral administration; administration volume: 10 mL/kg; administration frequency: once/day; administration cycle: 28 days; vehicle: 0.5% HPMC). • d. Tumor measurement and weighing were performed twice a week after starting administration of test drugs. • e. The animals were euthanized at the end of the experiment. • f. Data processing was performed using software such as GraphPad Prism. The tumor inhibitory efficacy of the compound was evaluated by TGI (%) and ΔT/ΔC (%). ΔT/ΔC (%)=(T−T0)/(C−C0)×100, where T and C are the tumor volumes of the treatment group and the vehicle control group at the end of the experiment, respectively, and T0 and C0 are the tumor volumes of the treatment group and the vehicle control group at the beginning of the experiment, respectively. Tumor growth inhibition (TGI) (%)=100−ΔT/ΔC (%). Tumor growth inhibition (TGI) (%)=100−(T−T0)/T0×100 when tumor regression occurs • 4. Experimental results and conclusions
(A xenograft is tissue or cells of one species grown in another, often human tumour cells in immunodeficient mice.)

A further assay relates to OVCAR-3 cells. Nature of the assay: In vitro proliferation inhibition (CellTiter-Glo), OVCAR-3. The format is cell-based. The conditions noted are these: Homo sapiens; OVCAR-3, ovarian cancer; 6-10 days culture. The text has this:
[…]
Experimental data processing method: The luminescence signal value was used to calculate the inhibition rate. […]
On the technique in general: In ATP-based viability assays light output follows the ATP content of the culture.

Setting [2] is: 0.3 mg/kg oral once/day, Day 28.
Setting [3] is: 100 mg/kg oral once/day, Day 28.

As to `CCc1cc2ncc(CN3CCN(c4ccc(C(=O)NC)nc4)CC3)cc2[nH]c1=O` [AZD5305], in assay [1] (0.3 mg/kg oral once/day, Day 0), the “Tumor volume (Mean ± SEM)” value is recorded as 154 ± 12 mm^3. Besides, in assay [1] (setting [2]), the T/C worked out at 6.20%, the TGI is 140.20% and the “Tumor volume (Mean ± SEM)” value was 92 ± 22 mm^3. In the assay on OVCAR-3 cells, the half-maximal inhibitory concentration (IC50) came to 5.1 ± 1.4 nM.
As for `O=C(c1cc(Cc2n[nH]c(=O)c3ccccc23)ccc1F)N1CCN(C(=O)C2CC2)CC1` [Olaparib], the “Tumor volume (Mean ± SEM)” value in assay [1] (100 mg/kg oral once/day, Day 0) worked out at 154 ± 13 mm^3. In assay [1] (setting [3]), the T/C came out at 63.43%, the TGI was 40.81% and the “Tumor volume (Mean ± SEM)” value is 942 ± 112 mm^3. Moreover, in the assay on OVCAR-3 cells, the half-maximal inhibitory concentration (IC50) stood at 319 ± 47 nM.

Source of the values: patent US20260256756A1, “USE OF PIPERIDINE ALKENE COMPOUND IN PREPARATION OF DRUG FOR TREATING CANCER” (JIANGSU HANSOH PHARMACEUTICAL GROUP CO., LTD., priority 2023, published 2026).
